Reference: ChEMBL document CHEMBL5154672, “Design and synthesis of HDAC inhibitors to enhance the therapeutic effect of diffuse large B-cell lymphoma by improving metabolic stability and pharmacokinetic characteristics” (Eur J Med Chem, 2022)
In brackets after ≈: the same amount, converted by molar mass.

What was measured:
[1] = system: TMD8; assay: Induction of apoptosis in human TMD8 cells assessed as late apoptotic cells at 0.5 uM incubated for 24 hrs by Annexin V-FITC/PI staining based flow cytometric analysis (reference value: 1.54%); format: functional
[2] = system: TMD8; assay: Antiproliferative activity against human TMD8 cells assessed as remaining cell activity at 2 uM incubated for 72 hrs by luminescence assay relative to control; format: functional
[3] = system: TMD8; assay: Induction of apoptosis in human TMD8 cells assessed as early apoptotic cells at 0.5 uM incubated for 24 hrs by Annexin V-FITC/PI staining based flow cytometric analysis (reference value: 0.24%); format: functional
[4] = system: A549; assay: Antiproliferative activity against human A549 cells assessed as remaining cell activity at 2 uM incubated for 72 hrs by luminescence assay relative to control; format: functional
[5] = system: HuT78; assay: Antiproliferative activity against human HuT78 cells incubated for 72 hrs by luminescence assay; format: functional, cell-based; conditions: HuT78, 72 h
[6] = system: 786-0; assay: Antiproliferative activity against human 786-O cells incubated for 72 hrs by luminescence assay; format: functional, cell-based; conditions: 786-0, 72 h
[7] = system: TMD8; assay: Induction of apoptosis in human TMD8 cells assessed as necrotic cells at 2 uM incubated for 24 hrs by Annexin V-FITC/PI staining based flow cytometric analysis (reference value: 1.85%); format: functional
[8] = target: Histone deacetylase 8 (Homo sapiens, UniProt Q9BY41); assay: Inhibition of HDAC8 (unknown origin) using RHK(Ac)K(Ac)AMC fluorogenic peptide as substrate preincubated for 10 mins followed by substrate addition for 2 hr in presence of ATP by fluoroscence based assay
Chain of Histone deacetylase 8 (Q9BY41 whole entry): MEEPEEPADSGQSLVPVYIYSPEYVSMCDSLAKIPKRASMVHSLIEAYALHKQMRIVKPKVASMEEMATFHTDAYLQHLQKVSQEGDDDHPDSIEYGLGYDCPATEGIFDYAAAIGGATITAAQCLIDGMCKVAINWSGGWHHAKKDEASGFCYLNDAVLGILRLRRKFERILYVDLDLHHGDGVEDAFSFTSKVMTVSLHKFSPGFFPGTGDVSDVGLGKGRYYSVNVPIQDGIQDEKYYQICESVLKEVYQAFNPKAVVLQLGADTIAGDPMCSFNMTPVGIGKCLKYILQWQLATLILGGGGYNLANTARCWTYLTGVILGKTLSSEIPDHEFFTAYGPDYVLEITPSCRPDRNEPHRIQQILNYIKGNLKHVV

[9] = system: TMD8; assay: Induction of apoptosis in human TMD8 cells assessed as early apoptotic cells at 4 uM incubated for 24 hrs by Annexin V-FITC/PI staining based flow cytometric analysis (reference value: 0.24%); format: functional
[10] = MRT (0 to t) in CB.17 SCID mouse xenografted with human TMD8 cells at 50 mg/kg, po measured upto 24 hrs by LC-MS/MS analysis; format: ADME, organism-based; conditions: in vivo
[11] = AUC (0 to t) in CB.17 SCID mouse xenografted with human TMD8 cells at 25 mg/kg, po measured upto 24 hrs by LC-MS/MS analysis; format: ADME, organism-based; design: dose 25 mg/kg, time < 24 hrs, route po; conditions: in vivo
[12] = MRT(0 to infinity) in CB.17 SCID mouse xenografted with human TMD8 cells at 25 mg/kg, po measured upto 24 hrs by LC-MS/MS analysis; format: ADME, organism-based; conditions: in vivo
[13] = system: DOHH-2; assay: Antiproliferative activity against human DOHH-2 cells incubated for 72 hrs by luminescence assay; format: functional, cell-based; conditions: DOHH-2, 72 h
[14] = AUC (0 to t) in CB.17 SCID mouse xenografted with human TMD8 cells at 100 mg/kg, po measured upto 24 hrs by LC-MS/MS analysis; format: ADME, organism-based; design: dose 100 mg/kg, time < 24 hrs, route po; conditions: in vivo
[15] = Metabolic stability in mouse liver microsomes assessed as half life measured for 75 to 130 mins by LC-MS/MS analysis; format: ADME, Microsome; conditions: time 75-130 min
[16] = Aqueous solubility of the compound; format: physicochemical; conditions: aqueous medium
[17] = system: TMD8; assay: Induction of apoptosis in human TMD8 cells assessed as early apoptotic cells at 1 uM incubated for 24 hrs by Annexin V-FITC/PI staining based flow cytometric analysis (reference value: 0.24%); format: functional
[18] = system: COLO-678; assay: Antiproliferative activity against human COLO-678 cells incubated for 72 hrs by luminescence assay; format: functional, cell-based; conditions: COLO-678, 72 h
[19] = Metabolic stability in rat liver microsomes assessed as intrinsic clearance measured for 75 to 130 mins by LC-MS/MS analysis; format: ADME, Microsome; conditions: time 75-130 min, read-out: CLH
[20] = system: CWR22R; assay: Antiproliferative activity against human 22Rv1 cells incubated for 72 hrs by luminescence assay; format: functional, cell-based; conditions: 22Rv1, 72 h
[21] = system: RS4-11; assay: Antiproliferative activity against human RS4-11 cells incubated for 72 hrs by luminescence assay; format: functional, cell-based; conditions: RS4-11, 72 h
[22] = system: TMD8; assay: Induction of apoptosis in human TMD8 cells assessed as viable cells at 0.5 uM incubated for 24 hrs by Annexin V-FITC/PI staining based flow cytometric analysis (reference value: 96.4%); format: functional; conditions: read-out: Activity
[23] = AUC (0 to infinity) in ICR mouse at 2 mg/kg, iv measured upto 24 hrs by LC-MS/MS analysis; format: ADME, organism-based; design: time < 24 hrs, dose 2 mg/kg, route iv; conditions: in vivo
[24] = system: SU-DHL-2; assay: Antiproliferative activity against human SUDHL2 cells incubated for 72 hrs by luminescence assay; format: functional, cell-based; conditions: SU-DHL-2, 72 h
[25] = system: SK-OV-3; assay: Antiproliferative activity against human SK-OV-3 cells incubated for 72 hrs by luminescence assay; format: functional, cell-based; conditions: SK-OV-3, 72 h
[26] = system: NCI-H460; assay: Antiproliferative activity against human NCI-H460 cells incubated for 72 hrs by luminescence assay; format: functional, cell-based; conditions: NCI-H460, 72 h
[27] = system: HT-29; assay: Antiproliferative activity against human HT-29 cells incubated for 72 hrs by luminescence assay; format: functional, cell-based; conditions: HT-29, 72 h
[28] = MRT (0 to t) in CB.17 SCID mouse xenografted with human TMD8 cells at 25 mg/kg, po measured upto 24 hrs by LC-MS/MS analysis; format: ADME, organism-based; conditions: in vivo
[29] = system: TMD8; assay: Induction of apoptosis in human TMD8 cells assessed as late apoptotic cells at 1 uM incubated for 24 hrs by Annexin V-FITC/PI staining based flow cytometric analysis (reference value: 1.54%); format: functional
[30] = Metabolic stability in dog liver microsomes assessed as half life measured for 75 to 130 mins by LC-MS/MS analysis; format: ADME, Canis lupus familiaris, Microsome; conditions: time 75-130 min
[31] = AUC (0 to infinity) in CB.17 SCID mouse xenografted with human TMD8 cells at 100 mg/kg, po measured upto 24 hrs by LC-MS/MS analysis; format: ADME, organism-based; design: time < 24 hrs, dose 100 mg/kg, route po; conditions: in vivo
[32] = system: TMD8; assay: Antiproliferative activity against human TMD8 cells incubated for 72 hrs by luminescence assay; format: functional, cell-based; conditions: TMD8, 72 h
[33] = target: Histone deacetylase 1 (Homo sapiens, UniProt Q13547); assay: Inhibition of HDAC1 (unknown origin) using RHKK(Ac)AMC fluorogenic peptide as substrate preincubated for 10 mins followed by substrate addition for 1 hr in presence of ATP by fluoroscence based assay
Chain of Histone deacetylase 1 (Q13547 whole entry): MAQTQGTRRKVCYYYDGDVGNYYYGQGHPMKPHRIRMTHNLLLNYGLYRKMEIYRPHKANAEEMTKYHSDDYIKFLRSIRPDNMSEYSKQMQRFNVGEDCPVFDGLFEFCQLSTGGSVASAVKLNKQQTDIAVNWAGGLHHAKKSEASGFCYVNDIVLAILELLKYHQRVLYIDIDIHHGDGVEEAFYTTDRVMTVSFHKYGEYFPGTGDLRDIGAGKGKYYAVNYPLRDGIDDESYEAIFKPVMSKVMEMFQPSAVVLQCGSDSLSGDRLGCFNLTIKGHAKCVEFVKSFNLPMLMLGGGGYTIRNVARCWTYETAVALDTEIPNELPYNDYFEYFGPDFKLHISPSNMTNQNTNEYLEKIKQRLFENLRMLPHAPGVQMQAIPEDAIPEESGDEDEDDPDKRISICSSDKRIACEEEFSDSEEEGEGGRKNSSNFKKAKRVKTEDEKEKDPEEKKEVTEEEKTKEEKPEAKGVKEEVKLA

[34] = system: MDA-MB-231; assay: Antiproliferative activity against human MDA-MB-231 cells incubated for 72 hrs by luminescence assay; format: functional, cell-based; conditions: MDA-MB-231, 72 h
[35] = system: TMD8; assay: Induction of apoptosis in human TMD8 cells assessed as necrotic cells at 0.5 uM incubated for 24 hrs by Annexin V-FITC/PI staining based flow cytometric analysis (RVB=1.85%); format: functional

IC50 [6]: 0.6 µM | IC50 [8]: > 10 µM | MRT last at 24 h [10]: 48.7 min | AUC(0-t) at 24 h [11]: 1220 ng·h/mL | MRT inf [12]: 48.3 min | AUC(0-t) at 24 h [14]: 9740 ng·h/mL | half-life [15]: 173 min | solubility [16]: 5 ng/mL (≈ 0.0121 µM) | IC50 [18]: 8.02 µM | microsomal CLint [19]: 13.2 µL/min/mg | IC50 [21]: 0.47 µM | AUC(0-inf) [23]: 1040 ng·h/mL | IC50 [24]: 0.51 µM | IC50 [25]: 3.17 µM | IC50 [26]: 1.58 µM | IC50 [27]: 2.41 µM | MRT last at 24 h [28]: 45 min | half-life [30]: 1080 min | AUC(0-inf) [31]: 9770 ng·h/mL | IC50 [33]: 0.0849 µM | IC50 [34]: 2.29 µM
Compound: Nc1ccccc1NC(=O)c1ccc(CN2CCC/C(=C\c3ccccn3)C2=O)cc1
Activity [1]: 1.59% | Activity [2]: 2.32% | Activity [3]: 0.34% | Activity [4]: 48.53% | IC50 [5]: 0.8 µM | Activity [7]: 6.52% | Activity [9]: 24.8% | IC50 [13]: 0.39 µM | Activity [17]: 1.03% | IC50 [20]: 1.14 µM | viability at 0.5 µM [22]: 95.8% | Activity [29]: 3.13% | IC50 [32]: 0.31 µM | Activity [35]: 2.29%
